Molecules are shown by their SMILES.

The nature of the series: Toxicity in brine shrimp. Format: organism-based. The following applies: artemia, in vivo.
As usually defined, the LC50 is the concentration that kills 50% of the test population. A higher LC50 goes with a less lethal substance. As to `CC(=O)O[C@H]1C[C@H](O)[C@@]23C(=O)[C@@H](C)[C@@H]1[C@]2(C)[C@@H](C)CC[C@@H]3O` [LEMNAFRICANOL], the LC50 was determined as 320 nM. Then `C[C@@H](C=O)[C@H]1C(=O)CCC2=C[C@@H](O)C[C@H](C)[C@]21C` [NARDOSINANOL C], with 4000 nM; and `CC(=O)[C@H]1C[C@H](O)C2=CCC[C@H](C)[C@@]2(C)[C@H]1C(C)=O` [NARDOSINANOL G], with 350 nM.
